Paper PMC9046087, “Structural basis of tethered agonism of the adhesion GPCRs ADGRD1 and ADGRF1” (Nature, 2022)
Ends that are not written are not given here.

Assays:
Assay in all cases: BRET assay using TRUPATH biosensors, Gi activation of ADGRF1
Format in all cases: cell-based
ADGRF1 [1] = target: T1, ADGRF1 (Homo sapiens, UniProt Q5T601, G801A); settings: ADGRF1 G801^6.50bA
T1 construct: Flag (N); expressed in transfected cells; host or cells: HEK293F
Procedure: (§1) To study the synthetic stalk peptide-induced G protein activation of ADGRD1 and ADGRF1, a BRET assay using TRUPATH biosensors was conducted to measure the proximal interaction between RLuc8 fused to the Gα subunit and GFP2 fused to the Gγ subunit. The TRUPATH suite of biosensors was obtained from Addgene (Addgene kit no. 1000000163) as a gift from B. Roth, including GαsS-RLuc8, Gαi1-RLuc8, Gβ3 and Gγ9-GFP2 as previously described.
(§2) The wild-type or mutant ADGRD1 and ADGRF1 were transiently co-transfected with plasmids encoding Gα-RLuc8 (GαsS-RLuc8 for Gs activation assay; Gαi1-RLuc8 for Gi activation assay), Gβ3 and Gγ9-GFP2 at a ratio of 2:1:1:1 (receptor plasmid, 800 ng; G protein subunit plasmids, 400 ng for each) in 2 ml HEK293F cells at a density of 1.2 × 10^6 cells per ml. Cell cultivation and receptor surface expression measurement were performed as described above. The cells were plated into 96-well white plates (40,000 cells per well) in 60 μl of assay buffer and incubated at 37 °C for 30 min. Then 10 μl of freshly prepared 50 μM coelenterazine 400a (Nanolight Technologies) was added. […] The cells were stimulated with 30 μl of synthetic stalk peptide at different concentrations and the BRET signals were monitored continuously five times. The last measurements were used in data analysis. The BRET ratios were calculated as the ratio of the GFP2 emission to RLuc8 emission.

ADGRF1 [2] = target: T2, ADGRF1 (Homo sapiens, UniProt Q5T601, G807W); settings: ADGRF1 G807^6.56bW, n = 3
T2 construct: Flag (N); expressed in transfected cells; host or cells: HEK293F
Procedure: as §1, §2

ADGRF1 [3] = target: T3, ADGRF1 (Homo sapiens, UniProt Q5T601, H820A); settings: ADGRF1 H820^7.39bA
T3 construct: Flag (N); expressed in transfected cells; host or cells: HEK293F
Procedure: as §1, §2

ADGRF1 [4] = target: T4, ADGRF1 (Homo sapiens, UniProt Q5T601, L681A); settings: ADGRF1 L681^3.53bA
T4 construct: Flag (N); expressed in transfected cells; host or cells: HEK293F
Procedure: as §1, §2

ADGRF1 [5] = target: T5, ADGRF1 (Homo sapiens, UniProt Q5T601, L681H); settings: ADGRF1 L681^3.53bH
T5 construct: Flag (N); expressed in transfected cells; host or cells: HEK293F
Procedure: as §1, §2

ADGRF1 [6] = target: T6, ADGRF1 (Homo sapiens, UniProt Q5T601, L682A); settings: ADGRF1 L682^3.54bA
T6 construct: Flag (N); expressed in transfected cells; host or cells: HEK293F
Procedure: as §1, §2

ADGRF1 [7] = target: T7, ADGRF1 (Homo sapiens, UniProt Q5T601, L752A); settings: ADGRF1 L752^5.44bA
T7 construct: Flag (N); expressed in transfected cells; host or cells: HEK293F
Procedure: as §1, §2

ADGRF1 [8] = target: T8, ADGRF1 (Homo sapiens, UniProt Q5T601, L764A); settings: ADGRF1 L764^5.56bA, n = 3
T8 construct: Flag (N); expressed in transfected cells; host or cells: HEK293F
Procedure: as §1, §2

ADGRF1 [9] = target: T9, ADGRF1 (Homo sapiens, UniProt Q5T601, L769A); settings: ADGRF1 L769^5.61bA
T9 construct: Flag (N); expressed in transfected cells; host or cells: HEK293F
T9 sequence (Q5T601 20-910 L769A): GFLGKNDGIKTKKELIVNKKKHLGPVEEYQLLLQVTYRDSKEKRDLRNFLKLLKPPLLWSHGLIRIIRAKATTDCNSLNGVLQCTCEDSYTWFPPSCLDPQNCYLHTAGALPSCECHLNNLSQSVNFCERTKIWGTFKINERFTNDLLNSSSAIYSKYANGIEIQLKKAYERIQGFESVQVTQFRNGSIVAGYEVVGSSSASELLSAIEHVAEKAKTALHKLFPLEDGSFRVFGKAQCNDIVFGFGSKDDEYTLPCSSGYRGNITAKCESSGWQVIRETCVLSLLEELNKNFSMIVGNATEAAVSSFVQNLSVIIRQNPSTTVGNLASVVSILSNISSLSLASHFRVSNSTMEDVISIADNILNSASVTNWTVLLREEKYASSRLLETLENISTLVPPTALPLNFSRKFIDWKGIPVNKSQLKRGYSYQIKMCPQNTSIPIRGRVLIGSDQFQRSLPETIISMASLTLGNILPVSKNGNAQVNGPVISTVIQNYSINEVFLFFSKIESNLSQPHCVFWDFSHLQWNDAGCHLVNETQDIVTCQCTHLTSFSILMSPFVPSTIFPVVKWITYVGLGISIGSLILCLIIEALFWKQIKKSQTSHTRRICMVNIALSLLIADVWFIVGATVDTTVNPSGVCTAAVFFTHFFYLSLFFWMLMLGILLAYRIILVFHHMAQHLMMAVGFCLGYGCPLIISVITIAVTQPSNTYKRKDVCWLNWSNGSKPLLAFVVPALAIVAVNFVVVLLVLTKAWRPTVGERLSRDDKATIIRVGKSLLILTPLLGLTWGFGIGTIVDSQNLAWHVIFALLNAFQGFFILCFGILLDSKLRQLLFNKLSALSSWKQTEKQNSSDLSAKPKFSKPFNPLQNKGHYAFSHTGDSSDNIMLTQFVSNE
Procedure: as §1, §2

ADGRF1 [10] = target: T10, ADGRF1 (Homo sapiens, UniProt Q5T601, M675A); settings: ADGRF1 M675^3.47bA
T10 construct: Flag (N); expressed in transfected cells; host or cells: HEK293F
Procedure: as §1, §2

ADGRF1 [11] = target: T11, ADGRF1 (Homo sapiens, UniProt Q5T601, V761A); settings: ADGRF1 V761^5.53bA, n = 3
T11 construct: Flag (N); expressed in transfected cells; host or cells: HEK293F
Procedure: as §1, §2

[12] = n = 3, read-out: pEC50 (mean ± s.e.m.) (converted)

T7 sequence (Q5T601 20-910 L752A): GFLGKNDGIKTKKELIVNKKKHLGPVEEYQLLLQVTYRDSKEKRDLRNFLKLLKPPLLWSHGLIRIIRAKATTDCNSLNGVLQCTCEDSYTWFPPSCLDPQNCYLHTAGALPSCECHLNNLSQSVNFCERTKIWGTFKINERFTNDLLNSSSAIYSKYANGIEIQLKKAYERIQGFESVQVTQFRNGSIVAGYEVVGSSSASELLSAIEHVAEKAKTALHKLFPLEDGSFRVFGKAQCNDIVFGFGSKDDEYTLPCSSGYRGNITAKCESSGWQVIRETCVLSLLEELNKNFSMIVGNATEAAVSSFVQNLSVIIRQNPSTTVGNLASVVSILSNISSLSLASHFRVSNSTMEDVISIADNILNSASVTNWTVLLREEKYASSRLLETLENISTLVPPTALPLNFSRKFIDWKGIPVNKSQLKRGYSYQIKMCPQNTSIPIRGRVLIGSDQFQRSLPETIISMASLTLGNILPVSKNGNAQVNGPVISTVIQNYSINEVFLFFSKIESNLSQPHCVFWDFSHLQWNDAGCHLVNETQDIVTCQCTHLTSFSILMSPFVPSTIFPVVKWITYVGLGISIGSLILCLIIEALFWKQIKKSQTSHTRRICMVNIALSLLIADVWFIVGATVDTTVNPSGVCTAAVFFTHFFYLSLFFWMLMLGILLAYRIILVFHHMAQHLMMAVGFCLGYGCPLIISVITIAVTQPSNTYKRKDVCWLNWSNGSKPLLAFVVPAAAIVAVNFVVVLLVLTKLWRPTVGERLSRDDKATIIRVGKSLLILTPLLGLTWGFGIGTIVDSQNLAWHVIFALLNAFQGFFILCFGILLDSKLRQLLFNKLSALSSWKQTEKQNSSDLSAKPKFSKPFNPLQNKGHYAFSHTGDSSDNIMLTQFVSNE
T3 sequence (Q5T601 20-910 H820A): as the sequence (Q5T601 20-910 L752A) above, with A733L, H801A counted along it
T5 sequence (Q5T601 20-910 L681H): as the sequence (Q5T601 20-910 L752A) above, with L662H, A733L counted along it
T4 sequence (Q5T601 20-910 L681A): as the sequence (Q5T601 20-910 L752A) above, with L662A, A733L counted along it
T1 sequence (Q5T601 20-910 G801A): as the sequence (Q5T601 20-910 L752A) above, with A733L, G782A counted along it
T11 sequence (Q5T601 20-910 V761A): as the sequence (Q5T601 20-910 L752A) above, with A733L, V742A counted along it
T8 sequence (Q5T601 20-910 L764A): as the sequence (Q5T601 20-910 L752A) above, with A733L, L745A counted along it
T2 sequence (Q5T601 20-910 G807W): as the sequence (Q5T601 20-910 L752A) above, with A733L, G788W counted along it
T6 sequence (Q5T601 20-910 L682A): as the sequence (Q5T601 20-910 L752A) above, with L663A, A733L counted along it
T10 sequence (Q5T601 20-910 M675A): as the sequence (Q5T601 20-910 L752A) above, with M656A, A733L counted along it

TSFSILMSPFVP [pF1]
Emax (mean ± s.e.m.) (ADGRF1 [1]; n = 3): 127 ± 13 % of WT
EC50 (ADGRF1 [1]; [12]): 347 nM
EC50 (ADGRF1 [2]): 1520 nM
Emax (mean ± s.e.m.) (ADGRF1 [2]): 101 ± 13 % of WT
Emax (mean ± s.e.m.) (ADGRF1 [3]; n = 3): 126 ± 12 % of WT
EC50 (ADGRF1 [3]; [12]): 275 nM
Emax (mean ± s.e.m.) (ADGRF1 [4]; n = 3): 59 ± 10 % of WT
EC50 (ADGRF1 [4]; [12]): 120 nM
Emax (mean ± s.e.m.) (ADGRF1 [5]; n = 4): 103 ± 13 % of WT
EC50 (ADGRF1 [5]; n = 4, read-out: pEC50 (mean ± s.e.m.) (converted)): 347 nM
Emax (mean ± s.e.m.) (ADGRF1 [6]; n = 3): 79 ± 12 % of WT
EC50 (ADGRF1 [6]; [12]): 269 nM
Emax (mean ± s.e.m.) (ADGRF1 [7]; n = 3): 90 ± 15 % of WT
EC50 (ADGRF1 [7]; [12]): 513 nM
EC50 (ADGRF1 [8]): 1300 nM
Emax (mean ± s.e.m.) (ADGRF1 [8]): 86 ± 14 % of WT
Emax (mean ± s.e.m.) (ADGRF1 [9]; n = 3): 102 ± 12 % of WT
EC50 (ADGRF1 [9]; [12]): 302 nM
Emax (mean ± s.e.m.) (ADGRF1 [10]; n = 3): 81 ± 13 % of WT
EC50 (ADGRF1 [10]; [12]): 427 nM
EC50 (ADGRF1 [11]): 1620 nM
Emax (mean ± s.e.m.) (ADGRF1 [11]): 124 ± 22 % of WT
